# Reference: patent US8304450B2, “Stable pharmaceutical compositions with docetaxel” (Quiral Quimica Do Brasil S.A., priority 2003, dated 2012)
# Assays:
# [1] = Comparative stability study between the tri-hydrate and anhydrous forms of docetaxel (bulk substance); assay type: physicochemical; design: Assay (H2O): unit not given here; conditions: for A % Docetaxel / A % Impurities (unknown) / Assay (H2O): bulk substance; for A % Docetaxel: amber glass vials under N2 over P2O5, −5 to 0° C.; for A % Docetaxel / A % Impurities (unknown): HPLC; for A % Impurities (unknown) / Assay (H2O): −5 to 0° C.; for Assay (H2O): Karl Fischer titration
# Procedure: Comparative stability study between the tri-hydrate and anhydrous forms of (2R,3S)4-acetoxy-2-α-benzoyloxy-5β-20-epoxy-1,7-β-10-β-tri-hydroxy-9-oxo-tax-11-en-13α-il 3-tert-butoxycarbonylamino-2-hydroxy-3-phenylpropionate
# Analysis was realized by HPLC using a Waters Spherisorb® C-18, 250×5 mm column, mobile phase MeOH:H2O 85:15, flow 1.5 mL/min. Related impurities reported as A % discounting the peak due to the dead volume. Samples were stored in amber glass vials under N2 in a dessicator over P2O5 maintained between −5 and 0° C.
# [2] = Comparative stability study of solutions of docetaxel tri-hydrate and anhydrous forms in polysorbate 80 with and without acid; assay type: physicochemical; conditions: solutions in polyethoxylated sorbitol previously or posteriorly acidified
# [3] = statement of patent application PI 9508789-3; cited from earlier work
# [4] = stored under adequate and controlled conditions
SMILES,A % Docetaxel ([1]; 0 months),A % Impurities (unknown) ([1]; 0 months),Assay (H2O) ([1]; 0 months),A % Docetaxel ([1]; 3 months),A % Impurities (unknown) ([1]; 3 months),Assay (H2O) ([1]; 3 months),A % Docetaxel ([1]; 6 months),A % Impurities (unknown) ([1]; 6 months),Assay (H2O) ([1]; 6 months),A % Docetaxel ([1]; 12 months),A % Impurities (unknown) ([1]; 12 months),Assay (H2O) ([1]; 12 months),A % Docetaxel ([1]; 18 months),A % Impurities (unknown) ([1]; 18 months),Assay (H2O) ([1]; 18 months),A % Docetaxel ([1]; 24 months),A % Impurities (unknown) ([1]; 24 months),Assay (H2O) ([1]; 24 months),other results
"CC(=O)O[C@@]12CO[C@@H]1C[C@H](O)[C@@]1(C)C(=O)[C@H](O)C3=C(C)[C@@H](OC(=O)[C@H](O)[C@@H](NC(=O)OC(C)(C)C)c4ccccc4)C[C@@](O)([C@@H](OC(=O)c4ccccc4)[C@H]21)C3(C)C [Docetaxel (anhydrous), (2R,3S)4-acetoxy-2-α-benzoyloxy-5β-20-epoxy-1,7-β-10-β-tri-hydroxy-9-oxo-tax-11-en-13α-il 3-tert-butoxycarbonylamino-2-hydroxy-3-phenylpropionate]",99.28 A %,0.72 A %,0.10,99.21 A %,0.79 A %,0.11,99.26 A %,0.73 A %,0.12,98.93 A %,1.07 A %,0.09,98.65 A %,1.35 A %,0.12,98.29 A %,1.71 A %,0.13,"re-hydration on storage [1, 4]: does not re-hydrate to a significant degree; stability of anhydrous product compared with tri-hydrate [1, 4]: stability equal or superior to the tri-hydrate; stability conferred to the pharmaceutical finished dosage form [2]: equal or superior stability"
"CC(=O)O[C@@]12CO[C@@H]1C[C@H](O)[C@@]1(C)C(=O)[C@H](O)C3=C(C)[C@@H](OC(=O)[C@H](O)[C@@H](NC(=O)OC(C)(C)C)c4ccccc4)C[C@@](O)([C@@H](OC(=O)c4ccccc4)[C@H]21)C3(C)C [Docetaxel (tri-hydrate), tri-hydrate of (2R,3S)4-acetoxy-2-α-benzoyloxy-5β-20-epoxy-1,7-β-10-β-tri-hydroxy-9-oxo-tax-11-en-13α-il 3-tert-butoxycarbonylamino-2-hydroxy-3-phenylpropionate]",99.51 A %,0.49 A %,6.32,99.23 A %,0.77 A %,6.35,99.30 A %,0.70 A %,6.21,98.91 A %,1.09 A %,6.42,98.72 A %,1.28 A %,6.31,98.21 A %,1.79 A %,6.29,stability of tri-hydrate relative to anhydrous product [3]: clearly superior stability relative to the anhydrous product
